Values quoted from earlier work as cited in patent US10695378B2, “Direct reprogramming of cells to cardiac myocyte fate” (Duke University, priority 2010, dated 2020).

How the values were obtained:
JAK1 = conditions: small molecule inhibitors of JAK-1
[1] = not given; remark: listed apart in the source
[2] = system: TGFβ-induced epithelial-to-mesenchymal transition
[3] = not given; remark: listed apart in the source

## O=C(O)C(Cc1c[nH]c2ccccc12)N1C(=O)c2ccccc2C1=O (stereo not shown) [RG108, 2-(1,3-Dioxo-1,3-dihydro-2H-isoindol-2-yl)-3-(1H-indol-3-yl)propionic acid]
Human tumor cell line
  doubling time in culture: increases
  human tumor cell line proliferation: inhibit

## N#CC[C@H](C1CCCC1)n1cc(-c2ncnc3[nH]ccc23)cn1 [INCB018424]
JAK1
  IC50 values (in words): nanomolar range

## O=C(O)C=C(CCc1ccc(Cl)cc1)c1ccccc1 [PS48, 5-(4-Chloro-phenyl)-3-phenyl-pent-2-enoic acid]
other
  soluble in DMSO: > 20 mg/mL

## CCCC(CCC)C(=O)O [Valproic acid, 2-propylpentanoic acid]
[1]; currently established therapeutic range
  therapeutic range: 50 to 120 µg/mL
[1]; during controlled therapy
  Serum or plasma valproic acid concentrations: 20 to 100 mg/L

## Cc1cccc(-c2nn(C(=S)Nc3ccccc3)cc2-c2ccnc3ccccc23)n1 [A83-01, 3-(6-Methyl-2-pyridinyl)-N-phenyl-4-(4-quinolinyl)-1H-pyrazole-1-carbothioamide]
Smad2
  phosphorylation of Smad2: blocks
[2]
  TGFβ-induced epithelial-to-mesenchymal transition: inhibits

## CC(C)(C)c1nc2c3ccc(F)cc3c3c(=O)[nH]ccc3c2[nH]1 [JAK inhibitor 1, 2-(1,1-Dimethylethyl)-9-fluoro-3,6-dihydro-7H-benz[h]-imidaz[4,5-f]isoquinolin-7-one]
JAK1
  IC50 values (in words): nanomolar range
[3]
  phosphorylation of STATS: blocks
